Molecular target: T1, recombinant C. elegans kinesin-II (heterotrimeric kinesin-2) (Caenorhabditis elegans, UniProt Q19633+Q965T6)
T1 sequence (Q19633 1-782): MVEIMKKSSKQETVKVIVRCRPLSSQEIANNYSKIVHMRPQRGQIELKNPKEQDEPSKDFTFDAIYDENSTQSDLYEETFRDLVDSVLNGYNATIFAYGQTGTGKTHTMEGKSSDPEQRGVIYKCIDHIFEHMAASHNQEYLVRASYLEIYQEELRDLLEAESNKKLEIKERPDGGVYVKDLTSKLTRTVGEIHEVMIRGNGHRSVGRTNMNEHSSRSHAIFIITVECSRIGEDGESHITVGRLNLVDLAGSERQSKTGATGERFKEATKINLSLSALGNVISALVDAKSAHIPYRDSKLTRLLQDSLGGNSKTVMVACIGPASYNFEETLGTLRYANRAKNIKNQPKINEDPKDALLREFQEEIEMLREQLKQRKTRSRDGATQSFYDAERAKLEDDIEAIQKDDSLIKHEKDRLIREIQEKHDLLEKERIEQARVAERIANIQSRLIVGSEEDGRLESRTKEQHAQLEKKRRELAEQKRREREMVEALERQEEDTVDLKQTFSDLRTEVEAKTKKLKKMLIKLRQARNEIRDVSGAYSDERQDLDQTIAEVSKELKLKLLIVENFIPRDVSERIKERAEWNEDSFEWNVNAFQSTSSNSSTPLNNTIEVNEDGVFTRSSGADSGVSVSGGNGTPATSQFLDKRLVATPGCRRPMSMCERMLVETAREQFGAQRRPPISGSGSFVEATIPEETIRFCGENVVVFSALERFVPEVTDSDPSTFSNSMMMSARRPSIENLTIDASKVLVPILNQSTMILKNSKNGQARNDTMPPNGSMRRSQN
T1 sequence (Q965T6 1-646): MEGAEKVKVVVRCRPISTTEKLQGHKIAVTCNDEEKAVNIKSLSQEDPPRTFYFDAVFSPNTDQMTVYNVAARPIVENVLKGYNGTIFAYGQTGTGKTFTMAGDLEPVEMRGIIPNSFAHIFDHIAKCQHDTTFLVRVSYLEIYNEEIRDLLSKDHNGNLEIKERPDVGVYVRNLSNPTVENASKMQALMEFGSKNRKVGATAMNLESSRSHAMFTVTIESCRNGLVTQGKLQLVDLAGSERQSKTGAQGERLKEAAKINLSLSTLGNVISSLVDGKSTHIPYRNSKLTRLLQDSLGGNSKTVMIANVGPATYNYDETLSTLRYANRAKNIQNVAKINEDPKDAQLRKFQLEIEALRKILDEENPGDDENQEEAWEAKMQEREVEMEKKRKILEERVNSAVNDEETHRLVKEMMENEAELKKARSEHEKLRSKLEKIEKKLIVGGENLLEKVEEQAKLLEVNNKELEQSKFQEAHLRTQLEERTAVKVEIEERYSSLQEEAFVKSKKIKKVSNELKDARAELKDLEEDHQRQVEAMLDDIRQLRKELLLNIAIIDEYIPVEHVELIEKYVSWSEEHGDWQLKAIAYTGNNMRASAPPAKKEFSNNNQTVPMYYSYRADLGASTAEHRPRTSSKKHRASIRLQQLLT
T1 sequence (G5EEE6 1-713 partner): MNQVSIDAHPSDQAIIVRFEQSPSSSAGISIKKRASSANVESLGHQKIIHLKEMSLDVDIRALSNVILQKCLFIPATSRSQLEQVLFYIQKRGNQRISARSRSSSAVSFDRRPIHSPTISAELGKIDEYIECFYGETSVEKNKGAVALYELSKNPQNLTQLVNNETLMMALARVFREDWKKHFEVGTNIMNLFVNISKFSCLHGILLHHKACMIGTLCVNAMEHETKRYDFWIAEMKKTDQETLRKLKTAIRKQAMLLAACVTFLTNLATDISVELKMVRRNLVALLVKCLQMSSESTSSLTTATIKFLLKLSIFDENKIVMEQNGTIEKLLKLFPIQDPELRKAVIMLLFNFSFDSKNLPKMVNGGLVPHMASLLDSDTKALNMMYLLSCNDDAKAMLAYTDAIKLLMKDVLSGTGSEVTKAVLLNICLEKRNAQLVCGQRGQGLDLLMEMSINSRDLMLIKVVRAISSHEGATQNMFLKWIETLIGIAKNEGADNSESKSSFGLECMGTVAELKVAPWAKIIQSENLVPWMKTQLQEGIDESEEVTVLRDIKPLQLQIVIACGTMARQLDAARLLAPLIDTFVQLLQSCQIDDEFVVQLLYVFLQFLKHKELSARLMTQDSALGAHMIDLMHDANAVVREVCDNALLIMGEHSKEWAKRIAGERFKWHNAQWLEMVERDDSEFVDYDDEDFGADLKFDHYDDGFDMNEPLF
Assay: microtubule gliding velocity assay
Type: biochemical
Details: read-out: Recombinant C. elegans kinesin-II; Mg-ATP; microtubules; 21°C

SMILES: Nc1ncnc2c1ncn2[C@@H]1O[C@H](COP(=O)(O)OP(=O)(O)OP(=O)(O)O)[C@@H](O)[C@H]1O [Mg-ATP]
- Km: 280 ± 50 µM

Reference: article PMC2064394 (The Journal of Cell Biology, 2006)
